The text below walks through data of PMC6100512, “In-Vitro Activity of Silybin and Related Flavonolignans against Leishmania infantum and L. donovani” (Molecules : A Journal of Synthetic Chemistry and Natural …, 2018).

A value given as a limit tells only on which side of the number the result lay.

One assay relates to Li promastigotes. The assay is described as follows: Drug combination with DhiS-A, Chou-Talalay method (CalcuSyn). The assay is classed as cell-based, Leishmania infantum. The settings on record: for Dose Required of Dn in combination with DhiS-A: computer-simulated; for DRI of Dn in combination with DhiS-A: fold dose reduction vs single agent; for Type of interaction with DhiS-A: Li promastigotes, fixed ratios AmB 0.01:15, Sb^III 1:1, PMM 5:1 (Dn:DhiS-A). On the procedure: Fixed-combination ratios of drugs were based on the IC50 values determined for the individual molecules. Mid-log-phase promastigotes of Li were exposed for 24 h at constant ratios of 0.01:15 (AmB:DhiS-A), 1:1 (Sb^III:DhiS-A) and 5:1 (PMM:DhiS-A). Dose–response curves of the combinations were analyzed with the Chou–Talalay method, based on the theorem of combination index (CI)-isobologram and CalcuSyn software. This method allows the evaluation of the type of interaction between two molecules according to mass action law. Results can be used to determine quantitatively the synergy (CI < 1), additive effect (CI = 1) or antagonism (CI > 1) of combinations. Moreover, the program allows the calculation of the drug reduction index (DRI): dose reduction in drug combinations to reach a given inhibition compared to the activity of the individual drugs.

The next assay deals with Ld promastigotes. The assay is described as follows: Multiplication of Ld promastigotes in vitro (CellTiter-Glo, 24 h). The assay is classed as cell-based, L. donovani. To be noted: Leishmania donovani; for inhibition of growth at 120 µM: compared to untreated cultures, mean ± SD, read-out: Reduction (%) of multiplication, L. donovani promastigotes. On the procedure: (§1) Growth was estimated by the addition of CellTiter-Glo® (Promega, Madison, WI, USA) (1:1) in 96-well microtiter white plates (Costar, Corning). After 10 min incubation (light protected, room temperature), luminescence was determined with FLUOstar Omega (BMG Labtech) reader. Sensitivity of Ld was similarly performed with promastigotes exposed to 120 μM. Control cultures (medium, untreated promastigotes, promastigotes treated with 0.2 μM AmB) were included. Experiment was carried out in triplicate and results expressed as % of inhibition of untreated control. Approximate IC50 values of the flavonolignans showing the highest inhibitory activity against Li mid-log-phase promastigotes were determined using dose-response curves. […] The compound with the highest activity, DhiS-A, was assayed against Ld promastigotes using the latter dilution series and the same culture conditions as above. For comparative purposes, mid-log promastigotes of Li and Ld were exposed to established anti-Leishmania agents: AmB (0.0078 μ[…] and 1.0 μM); […]
On the technique in general: Cellular ATP, detected with luciferase, serves as a proxy for viable cell number.

Assay [1] deals with intracellular amastigotes of Li BCN150. The assay is described as follows: Activity against intracellular amastigotes ex vivo in mouse peritoneal Mφ. The assay is classed as cell-based, Leishmania infantum. The settings on record: 0.1 µM, 24 h. How it is done:
Antiproliferative activity of flavonolignans against intracellular amastigotes was determined ex vivo using mouse peritoneal Mφ. Infections were carried out following the method and modifications described by us. Briefly, Mφ were seeded onto 8-well cell culture slides (SLP, Lifesciences Co., Pocheon, Korea) in a final volume of 400 µL (2.5 × 10^4 Mφ/well). Plates were incubated overnight at 37 °C under humidified 5% CO2/95% air atmosphere to facilitate adherence. Stationary-phase promastigotes of Ld and Li were centrifuged (370× g, 10 min) without break in a Ficoll (Sigma, Saint Louis, MO, USA) gradient (0%, 10% in Medium 199 and 30% in sterile phosphate-buffered saline). Metacyclic promastigotes, located in the 10–30% Ficoll interphase, were recovered, washed and opsonized in 15% normal mouse serum in 1:1 solution of RPMI and HBSS medium (Gibco, Life Technologies, Paisley, UK), 0.15 mM CaCl2 and 1 mM MgCl2 at 37 °C, 5% CO2 atmosphere for 30 min. Purified metacyclic promastigotes were added to the Mφ cultures using a ratio 4:1 (promastigotes:Mφ) for Li and 10:1 for Ld. Plates were incubated at 33 °C overnight as above. Noninternalized promastigotes were eliminated by repeated washing with fresh medium. Treatments (10 µM) were added to the cultures and kept for 24 h. Slides were methanol-fixed and stained with May–Grünwald Giemsa (Merck) to determine the % of infection and the number of amastigotes/100 Mφ under microscope. Cultures untreated, treated with 0.05% DMSO and treated with 0.1 µM AmB were included as controls. Experiments were done in triplicate and the activity was expressed as % of inhibition compared to untreated cultures.

Another assay concerns Li UCM9 promastigotes. The assay is described as follows: Multiplication of Li promastigotes in vitro (CellTiter-Glo, 24 h). The assay is classed as cell-based, Leishmania infantum. The settings on record: for IC50: approximate, dose-response curve; for IC50 / inhibition of growth at 120 µM: 24 h; for inhibition of growth at 120 µM: compared to untreated cultures, mean ± SD, read-out: Reduction (%) of multiplication, L infantum promastigotes; for Emax: exploratory screening, 0.94 µM up to 120 µM, read-out: Maximal effect (inhibition of growth of control cultures) on Li promastigotes. On the procedure: as §1

Assay [2] relates to BALB/c mouse peritoneal macrophages, Mφ. The assay is described as follows: Toxicity of flavonolignans for macrophages (CellTiter-Glo). The assay is classed as cell-based. The settings on record: Peritoneal macrophage, 24 h, 28.125 to 900 µM, approximate. How it is done:
Toxicity of flavonolignans for mammalian cells was determined using mouse peritoneal Mφ. Cells obtained were counted and seeded onto 96-well cultures plates (Costar, Corning) at a final concentration of 5 × 10^4 Mφ/well (100 µL/well). Plates were incubated overnight at 37 °C and humidified 5% CO2/95% air to facilitate adherence. Cells were cultured as above for 24 h with different concentrations of the flavonolignans (28.125 µM, 56.25 µM, 112.5 µM, 225 µM, 450 µM and 900 µM). After incubation, cell viability was determined with CellTiter-Glo® as previously described. Untreated and 300 µM AmB-treated control wells were included. Experiments were done in triplicate and approximate IC50 determined.

[3] abbreviates: ED50 (50% growth inhibition), constant ratio Dn:DhiS-A (AmB 0.01:15; Sb^III 1:1; PMM 5:1).
Where [4] appears, read: ED75 (75% growth inhibition), constant ratio Dn:DhiS-A (AmB 0.01:15; Sb^III 1:1; PMM 5:1).
The mark [5] stands for this setting: ED90 (90% growth inhibition), constant ratio Dn:DhiS-A (AmB 0.01:15; Sb^III 1:1; PMM 5:1).
The mark [6] stands for this setting: ED95 (95% growth inhibition), constant ratio Dn:DhiS-A (AmB 0.01:15; Sb^III 1:1; PMM 5:1).

As a reminder, the IC50 is the concentration that inhibits the measured activity by half. `C[C@@H]1[C@H](O)[C@@H](C)/C=C/C=C/C=C/C=C/C=C/C=C/C=C/[C@H](O[C@@H]2O[C@H](C)[C@@H](O)[C@H](N)[C@@H]2O)C[C@@H]2O[C@](O)(C[C@@H](O)C[C@@H](O)[C@H](O)CC[C@@H](O)C[C@@H](O)CC(=O)O[C@H]1C)C[C@H](O)[C@H]2C(=O)O` [AmB, amphotericin B]: the “CI value of combination Dn + DhiS-A” value was 1.49 (antagonism) in the assay with Li promastigotes (ED10 (10% growth inhibition), constant ratio Dn:DhiS-A (AmB 0.01:15)); 1.24 (moderate antagonism) in the assay on Li promastigotes (ED25 (25% growth inhibition), constant ratio Dn:DhiS-A (AmB 0.01:15)); 1.06 (additive effect) in the assay on Li promastigotes (setting [3]); 0.92 (additive effect) in the assay with Li promastigotes (setting [4]); 0.81 (moderate synergism) with Li promastigotes (setting [5]). Besides, the “Dose Required of Dn in combination with DhiS-A” value (“Dose Required of Dn” below) is listed as 0.023 µM in the assay with Li promastigotes (ED10); 0.030 µM in the assay on Li promastigotes (ED25); 0.038 µM in the assay with Li promastigotes (ED50); 0.048 µM with Li promastigotes (ED75); 0.062 µM in the assay on Li promastigotes (ED90); 0.074 µM in the assay on Li promastigotes (ED95). In addition, the “DRI of Dn in combination with DhiS-A” value is 2.85 in the assay with Li promastigotes (ED10); 2.74 in the assay with Li promastigotes (ED25); 2.64 in the assay with Li promastigotes (ED50); 2.54 in the assay with Li promastigotes (ED75); 2.39 in the assay on Li promastigotes (ED90). Moreover, the “Type of interaction with DhiS-A” value in the assay with Li promastigotes is “moderate synergism”. In addition, the IC50 is roughly 0.06 µM with Ld promastigotes (approximate, dose-response curve) and roughly 0.06 µM in the assay on Li UCM9 promastigotes (Leishmania infantum). Further, in assay [1], the “Reduction of the number of Mφ infected, Li” value is 50.0 ± 6.93%. Also, the “Reduction of the number of amastigotes/100 Mφ, Li” value in assay [1] is 57.63 ± 11.47%.

Consider `COc1cc(C2Oc3cc(-c4oc5cc(O)cc(O)c5c(=O)c4O)ccc3OC2CO)ccc1O` (stereo not drawn) [Dehydrosilybin AB, dehydrosilybin AB], for which the IC50 in assay [2] was roughly 37 µM. In addition, the inhibition of growth at 120 µM with Ld promastigotes came out at 9.01 ± 3.59%. For the same molecule, in the assay with Li UCM9 promastigotes (Leishmania infantum), the inhibition of growth at 120 µM stood at 17.9 ± 4.33% and the Emax is less than 50%.

`COc1cc([C@@H]2Oc3cc(-c4oc5cc(O)cc(O)c5c(=O)c4O)ccc3O[C@H]2CO)ccc1O` [Dehydrosilybin B, dehydrosilybin B]: the IC50 in assay [2] is roughly 41.2 µM. Besides, the values for the inhibition of growth at 120 µM in the assay on Ld promastigotes and in the assay on Li UCM9 promastigotes (Leishmania infantum) were 38.1 ± 2.9% and 20.9 ± 11.6%, respectively.

In the case of `COc1cc(C2C3C=C(c4oc5cc(O)cc(O)c5c(=O)c4O)C4C2COC4(O)C3=O)ccc1O` (stereo not drawn) [Dehydrosilydianin, dehydrosilydianin], the inhibition of growth at 120 µM in the assay with Ld promastigotes is 29.8 ± 2.17%; in the assay with Li UCM9 promastigotes (Leishmania infantum) it was 42.2 ± 5.42%. Also, the Emax with Li UCM9 promastigotes (Leishmania infantum) was less than 50%.

Turning to `COc1cc([C@H]2Oc3ccc([C@H]4Oc5cc(O)cc(O)c5C(=O)[C@@H]4O)cc3O[C@@H]2CO)ccc1O` [Isosilybin A, isosilybin A], the inhibition of growth at 120 µM with Ld promastigotes was 30.6 ± 5.85%; with Li UCM9 promastigotes (Leishmania infantum) it was 6.94 ± 6.43%.

`NC[C@@H]1O[C@H](O[C@H]2[C@@H](O)[C@H](O[C@@H]3[C@@H](O)[C@H](N)C[C@H](N)[C@H]3O[C@H]3O[C@H](CO)[C@@H](O)[C@H](O)[C@H]3N)O[C@@H]2CO)[C@H](N)[C@@H](O)[C@@H]1O` [PMM, paromomycin sulphate]: the “CI value of combination Dn + DhiS-A” value in the assay on Li promastigotes (setting [3]) was 1.98 (antagonism); with Li promastigotes (setting [4]), 1.65 (antagonism); with Li promastigotes (setting [5]) it was 1.38 (moderate antagonism); with Li promastigotes (setting [6]) it was 1.23 (moderate antagonism). Besides, the “Dose Required of Dn” value in the assay with Li promastigotes (ED50) is reported as 822 µM; in the assay on Li promastigotes (ED75) it was 1145 µM; in the assay on Li promastigotes (ED90), 1594 µM; with Li promastigotes (ED95) it was 1997 µM. For the same molecule, the “DRI of Dn in combination with DhiS-A” value in the assay on Li promastigotes (ED50) is given as 39.54; with Li promastigotes (ED75), 182.9; in the assay with Li promastigotes (ED90) it was 845.2; in the assay on Li promastigotes (ED95), 2393. In the assay on Li promastigotes, the “Type of interaction with DhiS-A” value is on record as “antagonists”.

For `COc1cc([C@H]2Oc3cc([C@H]4Oc5cc(O)cc(O)c5C(=O)[C@@H]4O)ccc3O[C@@H]2CO)ccc1O` [Silybin A, silybin A], the inhibition of growth at 120 µM in the assay with Ld promastigotes was 14.2 ± 7.6%; in the assay on Li UCM9 promastigotes (Leishmania infantum), -3.18 ± 9.09%.

Consider `COc1cc([C@@H]2Oc3cc([C@H]4Oc5cc(O)cc(O)c5C(=O)[C@@H]4O)ccc3O[C@H]2CO)ccc1O` [Silybin B, silybin B], for which the inhibition of growth at 120 µM in the assay with Ld promastigotes is 30.9 ± 5.02%; with Li UCM9 promastigotes (Leishmania infantum), -3.82 ± 9.11%.

For `COc1cc([C@@H]2Oc3c(O)cc([C@H]4Oc5cc(O)cc(O)c5C(=O)[C@@H]4O)cc3[C@H]2CO)ccc1O` [Silychristin A, silychristin A], the inhibition of growth at 120 µM in the assay on Ld promastigotes is 19.2 ± 5.75%. In addition, in the assay on Li UCM9 promastigotes (Leishmania infantum), the inhibition of growth at 120 µM was 27.1 ± 8.64% and the Emax was less than 50%.

Regarding `COc1cc([C@@H]2[C@H]3CO[C@@]4(O)C(=O)[C@@H]2C=C([C@H]2Oc5cc(O)cc(O)c5C(=O)[C@@H]2O)[C@@H]34)ccc1O` [Silydianin, silydianin], the inhibition of growth at 120 µM in the assay with Ld promastigotes was found to be 20.5 ± 3.08%; in the assay with Li UCM9 promastigotes (Leishmania infantum) it was 16.4 ± 8.63%.

Consider “potassium tartrate of antimonium III [Sb^III]”, for which the “CI value of combination Dn + DhiS-A” value in the assay with Li promastigotes (setting [3]) is 1.89 (antagonism); in the assay with Li promastigotes (setting [4]) it was 2.09 (antagonism); in the assay with Li promastigotes (setting [5]), 2.50 (antagonism); in the assay on Li promastigotes (setting [6]), 2.93 (antagonism). For the same molecule, the “Dose Required of Dn” value in the assay on Li promastigotes (ED50) is listed as 56 µM; in the assay on Li promastigotes (ED75), 141.12 µM; with Li promastigotes (ED90) it was 355.63 µM; in the assay on Li promastigotes (ED95), 666.84 µM. Besides, the “DRI of Dn in combination with DhiS-A” value with Li promastigotes (ED50) was 0.82; in the assay on Li promastigotes (ED75), 0.92; in the assay with Li promastigotes (ED90), 1.04; in the assay on Li promastigotes (ED95) it was 1.13. Moreover, the “Type of interaction with DhiS-A” value in the assay on Li promastigotes is reported as “antagonists”. The IC50 in the assay with Li UCM9 promastigotes was roughly 80.6 µM.
